16 compounds from patent publication US20260049071A1, “PROTEIN TYROSINE KINASE INHIBITOR AND MEDICAL USE THEREOF” (BEYANG THERAPEUTICS CO., LTD., priority 2022, published 2026) can be followed below.

One data set has as its target KDR (VEGFR2) (Homo sapiens (Human), UniProt P35968). Put plainly: Kinase inhibition, Mobility Shift Assay (VEGFR2). The class given is biochemical. Summed up:
(§1)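 Mobility shift assay: each kinase preincubated 10 min at room temperature with compound, then reacted with FAM-labeled peptide, MgCl2 and ATP at 28° C. for varying times. Substrate-to-product conversion read on Caliper; % inhibition normalised to no-kinase and DMSO controls, and IC50 fitted.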

A further data set concerns melanin. Put plainly: Binding capacity of compounds to melanin. The class given is in vitro ADME. Conditions: Sepia officinalis (cuttlefish), melanin suspension (1 mg/mL); 1 mg/mL melanin suspension in PBS pH 7.4, 2 μM compound, 2 h at 37° C.; read-out: Fu % (percentage of free drug, not bound to melanin). The source says: Pigmented eye tissues contain melanin in intracellular melanosomes. Drugs bind to melanin to varying degrees, ranging from non-binding to extensive binding. Therefore, melanin binding is an important feature that affects drug delivery and biodistribution in the eye. The binding capacity of a compound to the melanin must be considered in the development of ophthalmic drugs.
Melanin was derived from the melanin of cuttlefish (Sepia officinalis) and was commercially available from Sigma Aldrich (St Louis, MO).
First, prepare 1 mg/mL melanin suspension with PBS (pH 7.4). As a washing step for the matrix, centrifuge the suspended particles for 5 min at 3000 rpm. Resuspend the resulting particles in a fresh PBS buffer, heat to 37° C. over continuous shaking and incubate it for 1 h. Accurately pipette 2 μL of the test stock solution (0.1 mM) into 98 μL of melanin suspension (1 mg/mL) to achieve a final incubation concentration of 2 μM. Similarly, accurately pipette 2 μL of the stock solution (0.1 mM) to 98 μL of PBS buffer (containing 0.1% BSA) as a blank control sample. Incubate the samples in a shaker (80-90 rpm) for 2 h at 37° C. Then, centrifuge the samples at room temperature. Pipette 50 μL of the supernatant and add 50 μL of precipitant (containing an internal standard). After protein precipitation of all the above samples, centrifuge the samples to collect the supernatants, dilute the supernatants with water (if necessary) and inject them for analysis. At the same time, measure the positive controls, including the high-binding compounds Sunitinib and chloroquine and the low-binding compound celecoxib. Establish an LC-MS/MS method for determining compound concentrations, and calibrate the peak area ratio of analyte/internal standard (Analyte/AIS) in the measured sample by the dilution factor to take it as an alternative concentration for the sample for data processing. The binding rate (Fh) of a compound in melanin was calculated as: […]
Ctest was the concentration of the compound in the melanin-incubated sample or the peak area ratio of the test compound to the internal standard. Ccontrol was the concentration of the compound in the blank control sample or the peak area ratio of the test compound to the internal standard. Percentage of free drug (Fu %)=100−Fb The binding rates of the compounds of the present invention to melanin are shown in the table below: […]

The target of a further data set is FLT1 (VEGFR1) (Homo sapiens (Human), UniProt P17948). Put plainly: Kinase inhibition, Mobility Shift Assay (VEGFR1). The class given is biochemical. As for the experimental part:
(§2) This assay directly monitored the ability of compounds to inhibit kinase phosphorylation by measuring non-phosphorylated and phosphorylated substrates in kinase reactions by using Mobility Shift Assays/IMAP™ analysis.
(§3) Add the kinase and DTT to 1× kinase buffer to form a 2.5× kinase solution; transfer 10 μL of 2.5× kinase solution to a 384-well reaction plate and add 1× kinase buffer to negative control wells. Incubate the plate for 10 min at room temperature; add FAM-labeled peptides, MgCl2, ATP and other reagents to 1× kinase buffer to form a 2.5× substrate solution; transfer 10 μL of the above 2.5× substrate solution to the 384-well reaction plate; incubate the plate at 28° C. for different times, and add 25 μL of stop solution to the 384-well reaction plate to stop the reaction. Read the conversion ratio data on CaliperEZ Reader II. Convert conversion rates into inhibition ratio data.
(§4) “Min” indicates the readout of the control well without the addition of kinase; and “Max” indicates the readout of the control well with the addition of DMSO. Fit IC50 values with XLFit excel add-in version 5.4.0.8.
(§5) X indicates the log value of compound concentration, and Y indicates the inhibition ratio (% inhibition).

A further data set concerns the target FLT4 (VEGFR3) (Homo sapiens (Human), UniProt P35916). Briefly: Kinase inhibition, Mobility Shift Assay (VEGFR3). The class given is biochemical. On the procedure:
as §2, §3, §4, §5

A further data set addresses EGFR (Homo sapiens (Human), UniProt P00533). Put plainly: Kinase inhibition, Mobility Shift Assay (EGFR). The class given is biochemical. Summed up:
as §1

Some results are limits rather than exact numbers.

Chain of FLT4 (VEGFR3) (P35916 25-1363): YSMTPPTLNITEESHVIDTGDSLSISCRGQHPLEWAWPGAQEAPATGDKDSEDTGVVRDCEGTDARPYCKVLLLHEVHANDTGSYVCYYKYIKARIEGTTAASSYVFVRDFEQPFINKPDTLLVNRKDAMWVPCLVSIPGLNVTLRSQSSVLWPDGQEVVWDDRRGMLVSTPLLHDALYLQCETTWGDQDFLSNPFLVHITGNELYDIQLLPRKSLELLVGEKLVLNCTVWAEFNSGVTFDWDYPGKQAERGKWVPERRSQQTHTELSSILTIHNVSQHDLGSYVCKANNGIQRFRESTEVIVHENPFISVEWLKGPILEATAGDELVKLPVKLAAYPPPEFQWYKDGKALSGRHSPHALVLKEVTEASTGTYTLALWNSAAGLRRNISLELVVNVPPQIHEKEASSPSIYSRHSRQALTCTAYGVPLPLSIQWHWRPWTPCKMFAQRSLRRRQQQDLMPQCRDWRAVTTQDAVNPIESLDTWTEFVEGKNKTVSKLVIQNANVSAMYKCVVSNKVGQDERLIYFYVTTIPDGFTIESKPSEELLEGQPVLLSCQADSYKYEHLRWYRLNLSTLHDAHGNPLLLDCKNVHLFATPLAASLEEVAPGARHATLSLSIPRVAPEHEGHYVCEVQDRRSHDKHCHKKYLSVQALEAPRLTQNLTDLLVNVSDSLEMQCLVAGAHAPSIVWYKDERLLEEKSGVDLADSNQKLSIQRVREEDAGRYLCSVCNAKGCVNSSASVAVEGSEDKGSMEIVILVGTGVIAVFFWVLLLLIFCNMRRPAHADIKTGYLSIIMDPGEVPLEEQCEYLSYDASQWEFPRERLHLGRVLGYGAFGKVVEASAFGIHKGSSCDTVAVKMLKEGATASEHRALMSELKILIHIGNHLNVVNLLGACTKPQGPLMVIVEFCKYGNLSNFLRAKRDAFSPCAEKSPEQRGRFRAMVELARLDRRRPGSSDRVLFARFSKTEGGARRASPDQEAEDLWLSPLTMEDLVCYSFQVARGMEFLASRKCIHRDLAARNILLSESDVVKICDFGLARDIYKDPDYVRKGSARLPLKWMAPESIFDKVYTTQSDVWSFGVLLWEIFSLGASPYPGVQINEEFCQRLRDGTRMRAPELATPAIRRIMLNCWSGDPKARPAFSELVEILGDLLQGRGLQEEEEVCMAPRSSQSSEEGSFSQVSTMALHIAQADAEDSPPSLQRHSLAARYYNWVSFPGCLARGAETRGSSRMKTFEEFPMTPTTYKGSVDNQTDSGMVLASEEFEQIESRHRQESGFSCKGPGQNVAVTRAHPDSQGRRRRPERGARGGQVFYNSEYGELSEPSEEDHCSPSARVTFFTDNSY
Chain of FLT1 (VEGFR1) (P17948 27-1338): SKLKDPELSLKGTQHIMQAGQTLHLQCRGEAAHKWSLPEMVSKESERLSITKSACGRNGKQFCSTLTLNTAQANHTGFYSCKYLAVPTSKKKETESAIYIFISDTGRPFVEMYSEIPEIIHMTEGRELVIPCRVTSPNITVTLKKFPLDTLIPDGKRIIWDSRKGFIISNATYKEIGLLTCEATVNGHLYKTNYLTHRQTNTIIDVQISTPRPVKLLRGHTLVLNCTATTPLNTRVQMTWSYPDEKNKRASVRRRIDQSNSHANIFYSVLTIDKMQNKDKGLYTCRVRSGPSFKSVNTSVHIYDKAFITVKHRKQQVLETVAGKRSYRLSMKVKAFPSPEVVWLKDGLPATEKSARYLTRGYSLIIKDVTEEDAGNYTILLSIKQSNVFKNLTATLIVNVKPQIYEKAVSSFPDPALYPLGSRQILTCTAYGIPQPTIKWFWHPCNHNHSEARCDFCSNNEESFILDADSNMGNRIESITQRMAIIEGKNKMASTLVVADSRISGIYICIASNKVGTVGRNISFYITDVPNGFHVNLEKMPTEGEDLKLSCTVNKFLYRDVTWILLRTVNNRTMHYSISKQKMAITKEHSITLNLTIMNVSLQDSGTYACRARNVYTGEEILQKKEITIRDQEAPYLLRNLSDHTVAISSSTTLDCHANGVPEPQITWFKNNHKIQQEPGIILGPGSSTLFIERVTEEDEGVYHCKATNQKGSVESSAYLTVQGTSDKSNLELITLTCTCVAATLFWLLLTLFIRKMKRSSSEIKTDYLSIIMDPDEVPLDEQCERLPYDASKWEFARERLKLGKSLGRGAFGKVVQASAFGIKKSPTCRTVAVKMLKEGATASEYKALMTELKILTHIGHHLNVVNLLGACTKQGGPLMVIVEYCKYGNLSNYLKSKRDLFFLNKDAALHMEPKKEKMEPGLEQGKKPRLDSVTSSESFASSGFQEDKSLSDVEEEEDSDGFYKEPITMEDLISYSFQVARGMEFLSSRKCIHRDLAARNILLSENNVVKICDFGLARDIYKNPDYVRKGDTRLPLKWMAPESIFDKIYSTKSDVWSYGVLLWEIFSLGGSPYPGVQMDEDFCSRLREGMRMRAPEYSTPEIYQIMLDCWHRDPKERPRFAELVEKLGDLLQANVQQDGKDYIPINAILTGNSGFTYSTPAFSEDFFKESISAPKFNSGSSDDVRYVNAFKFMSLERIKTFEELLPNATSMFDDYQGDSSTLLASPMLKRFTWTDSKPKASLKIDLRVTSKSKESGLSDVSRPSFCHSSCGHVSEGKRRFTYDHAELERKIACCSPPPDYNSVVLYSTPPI
Chain of KDR (VEGFR2) (P35968 790-1356): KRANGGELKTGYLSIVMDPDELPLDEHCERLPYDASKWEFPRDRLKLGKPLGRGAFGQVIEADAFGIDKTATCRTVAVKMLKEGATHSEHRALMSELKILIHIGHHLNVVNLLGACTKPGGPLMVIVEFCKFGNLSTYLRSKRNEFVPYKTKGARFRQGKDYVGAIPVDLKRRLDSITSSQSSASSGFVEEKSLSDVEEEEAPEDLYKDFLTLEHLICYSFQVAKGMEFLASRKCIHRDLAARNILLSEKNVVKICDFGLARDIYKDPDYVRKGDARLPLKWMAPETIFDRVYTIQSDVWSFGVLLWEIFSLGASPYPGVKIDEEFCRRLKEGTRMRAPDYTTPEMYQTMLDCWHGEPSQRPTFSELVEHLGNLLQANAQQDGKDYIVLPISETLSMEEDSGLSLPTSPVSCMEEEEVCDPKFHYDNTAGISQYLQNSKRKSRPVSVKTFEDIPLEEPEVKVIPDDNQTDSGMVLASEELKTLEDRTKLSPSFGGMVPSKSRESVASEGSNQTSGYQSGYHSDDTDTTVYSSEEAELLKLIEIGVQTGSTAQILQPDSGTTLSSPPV
Chain of EGFR (P00533 25-1210): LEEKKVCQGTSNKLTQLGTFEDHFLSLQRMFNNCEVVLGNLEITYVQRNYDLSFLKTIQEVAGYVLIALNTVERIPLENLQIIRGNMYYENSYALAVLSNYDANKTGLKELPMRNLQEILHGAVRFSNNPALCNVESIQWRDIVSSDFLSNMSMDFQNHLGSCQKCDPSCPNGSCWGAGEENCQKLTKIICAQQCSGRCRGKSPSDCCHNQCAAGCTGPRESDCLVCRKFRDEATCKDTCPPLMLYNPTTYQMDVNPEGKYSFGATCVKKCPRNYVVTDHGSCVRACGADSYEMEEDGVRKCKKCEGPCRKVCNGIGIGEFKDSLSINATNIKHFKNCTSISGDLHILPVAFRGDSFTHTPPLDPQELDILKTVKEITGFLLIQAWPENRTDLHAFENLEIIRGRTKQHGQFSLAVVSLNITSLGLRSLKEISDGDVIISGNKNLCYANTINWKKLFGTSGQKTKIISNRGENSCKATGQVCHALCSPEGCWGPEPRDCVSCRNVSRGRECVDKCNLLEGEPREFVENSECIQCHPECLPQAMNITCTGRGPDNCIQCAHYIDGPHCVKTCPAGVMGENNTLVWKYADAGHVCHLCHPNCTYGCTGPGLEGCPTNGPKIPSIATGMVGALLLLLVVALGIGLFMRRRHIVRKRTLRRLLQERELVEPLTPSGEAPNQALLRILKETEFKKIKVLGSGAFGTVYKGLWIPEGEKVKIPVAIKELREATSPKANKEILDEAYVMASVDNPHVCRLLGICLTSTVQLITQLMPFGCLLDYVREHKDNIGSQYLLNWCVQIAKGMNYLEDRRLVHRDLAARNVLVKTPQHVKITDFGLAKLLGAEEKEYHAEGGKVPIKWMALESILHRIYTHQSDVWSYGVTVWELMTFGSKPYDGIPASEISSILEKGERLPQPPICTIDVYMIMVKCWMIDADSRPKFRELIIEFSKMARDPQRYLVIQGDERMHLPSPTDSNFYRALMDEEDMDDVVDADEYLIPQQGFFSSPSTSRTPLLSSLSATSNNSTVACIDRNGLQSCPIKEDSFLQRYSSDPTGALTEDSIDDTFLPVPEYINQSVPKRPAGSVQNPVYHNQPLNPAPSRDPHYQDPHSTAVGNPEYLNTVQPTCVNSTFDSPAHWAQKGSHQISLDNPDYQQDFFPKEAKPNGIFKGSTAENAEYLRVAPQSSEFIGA

`CNC(=O)c1ccccc1Sc1ccc2c(/C=C/c3ccc(OCCN4CCN(C)CC4)cn3)n[nH]c2c1` [Compound I-4, N-methyl-2-({3-[(E)-2-{5-[2-(4-methylpiperazin-1-yl)ethoxy]pyridin-2-yl}vinyl]-1H-indazol-6-yl}thio)benzamide]: the IC50 (as a rule, the midpoint of a concentration-inhibition curve) at KDR (VEGFR2) is at most 1 nM; on FLT1 (VEGFR1) it was at most 1 nM; at FLT4 (VEGFR3), at most 1 nM; on EGFR, 6000 to 60000 nM. For the same compound, the fraction unbound at 2 h, 2 μM with melanin is over 0.05.

For the compound `CNC(=O)c1ccccc1Sc1ccc2c(/C=C/c3ccc(OCCC4CCN(C)CC4)cn3)n[nH]c2c1` [Compound I-5, N-methyl-2-({3-[(E)-2-{5-[2-(1-methylpiperidin-4-yl)ethoxy]pyridin-2-yl}vinyl]-1H-indazol-6-yl}thio)benzamide], the half-maximal inhibitory concentration (IC50) is at most 1 nM at KDR (VEGFR2), at most 1 nM on FLT1 (VEGFR1), at most 1 nM on FLT4 (VEGFR3) and 6000 to 60000 nM on EGFR. Further, the fraction unbound at 2 h, 2 μM with melanin was 0.01 to 0.05.

Regarding `O=C(NC1CC1)c1ccccc1Sc1ccc2c(/C=C/c3ccc(OCCN4CCCC4)cn3)n[nH]c2c1` [Compound I-8, N-cyclopropyl-2-({3-[(E)-2-{5-[2-(pyrrolidin-1-yl)ethoxy]pyridin-2-yl}vinyl]-1H-indazol-6-yl}thio)benzamide], the IC50 was in the range of 1 to 10 nM on KDR (VEGFR2), 1 to 10 nM on FLT1 (VEGFR1), 1 to 10 nM on FLT4 (VEGFR3) and 6000 to 60000 nM at EGFR. In addition, the fraction unbound at 2 h, 2 μM in the data set with melanin lay in the range of 0.01 to 0.05.

As to `CNC(=O)c1ccccc1Sc1ccc2c(/C=C/c3ccn(CCCN4CCCC4)n3)n[nH]c2c1` [Compound I-11, N-methyl-2-({3-[(E)-2-{1-[3-(pyrrolidin-1-yl)propyl]-1H-pyrazole-3-yl}vinyl]-1H-indazol-6-yl}thio)benzamide], the IC50 at KDR (VEGFR2) was in the range of 1 to 10 nM; on FLT1 (VEGFR1) it was 1 to 10 nM; on FLT4 (VEGFR3), 1 to 10 nM; on EGFR, 6000 to 60000 nM. Besides, the fraction unbound at 2 h, 2 μM with melanin was in the range of 0.01 to 0.05.

`CNC(=O)c1ccccc1Sc1ccc2c(/C=C/c3ccn(CCN4CCCC4)n3)n[nH]c2c1` [Compound I-13, N-methyl-2-({3-[(E)-2-{1-[2-(pyrrolidin-1-yl)ethyl]-1H-pyrazole-3-yl}vinyl]-1H-indazol-6-yl}thio)benzamide]: the half-inhibitory concentration (IC50) on KDR (VEGFR2) was 1 to 10 nM; on FLT1 (VEGFR1), 1 to 10 nM; at FLT4 (VEGFR3), at most 1 nM; at EGFR it was 6000 to 60000 nM. In the data set on melanin, the fraction unbound at 2 h, 2 μM lay in the range of 0.01 to 0.05.

As for `CNC(=O)c1ccccc1Sc1ccc2c(/C=C/c3cccc(OCCN4CCCC4)c3)n[nH]c2c1` [Compound I-15, N-methyl-2-({3-[(E)-2-{3-[2-(pyrrolidin-1-yl)ethoxy]phenyl}vinyl]-1H-indazol-6-yl}thio)benzamide], the 50% inhibitory concentration (IC50) on KDR (VEGFR2) lay in the range of 1 to 10 nM; on FLT1 (VEGFR1), 1 to 10 nM; on FLT4 (VEGFR3) it was 1 to 10 nM; on EGFR, 6000 to 60000 nM. Also, in the data set with melanin, the fraction unbound at 2 h, 2 μM was in the range of 0.01 to 0.05.

Regarding `CNC(=O)c1ccccc1Sc1ccc2c(C#Cc3ccc(OCCN4CCCC4)cn3)n[nH]c2c1` [Compound I-16, N-methyl-2-{[3-(2-{5-[2-(pyrrolidin-1-yl)ethoxy]pyridin-2-yl}ethynyl)-1H-indazol-6-yl]thio}benzamide], the IC50 fell in the range of 1 to 10 nM at KDR (VEGFR2), 1 to 10 nM on FLT1 (VEGFR1), 1 to 10 nM on FLT4 (VEGFR3) and 6000 to 60000 nM at EGFR. Besides, the fraction unbound at 2 h, 2 μM with melanin is under 0.01.

With `CNC(=O)c1ccccc1Sc1ccc2c(/C=C/c3cccc(OCCN4CCCC4)n3)n[nH]c2c1` [Compound I-17, N-methyl-2-({3-[(E)-2-{6-[2-(pyrrolidin-1-yl)ethoxy]pyridin-2-yl}vinyl]-1H-indazol-6-yl}thio)benzamide], the IC50 was 1 to 10 nM on KDR (VEGFR2), 1 to 10 nM at FLT1 (VEGFR1), 1 to 10 nM at FLT4 (VEGFR3) and 6000 to 60000 nM at EGFR. For the same compound, in the data set with melanin, the fraction unbound at 2 h, 2 μM lay in the range of 0.01 to 0.05.

`CNC(=O)c1ccccc1Sc1ccc2c(/C=C/c3ccnc(OCCN4CCCC4)c3)n[nH]c2c1` [Compound I-18, N-methyl-2-({3-[(E)-2-{2-[2-(pyrrolidin-1-yl)ethoxy]pyridin-4-yl}vinyl]-1H-indazol-6-yl}thio)benzamide]: the IC50 was 1 to 10 nM at KDR (VEGFR2), 1 to 10 nM at FLT1 (VEGFR1), 1 to 10 nM on FLT4 (VEGFR3) and 6000 to 60000 nM on EGFR. The fraction unbound at 2 h, 2 μM with melanin was in the range of 0.01 to 0.05.

As to `CNC(=O)c1ccccc1Sc1ccc2c(/C=C/c3ccc(OCCN4CCCC4)nc3)n[nH]c2c1` [Compound I-19, N-methyl-2-({3-[(E)-2-{6-[2-(pyrrolidin-1-yl)ethoxy]pyridin-3-yl}vinyl]-1H-indazol-6-yl}thio)benzamide], the IC50 on KDR (VEGFR2) is 1 to 10 nM; on FLT1 (VEGFR1) it was 1 to 10 nM; on FLT4 (VEGFR3) it was 1 to 10 nM; at EGFR, over 60000 nM. Besides, the fraction unbound at 2 h, 2 μM in the data set with melanin fell in the range of 0.01 to 0.05.

With `CNC(=O)c1ccccc1Sc1cnc2c(/C=C/c3ccccn3)n[nH]c2c1` [Compound I-21, N-methyl-2-({3-[(E)-2-(pyridin-2-yl)vinyl]-1H-pyrazolo[4,3-b]pyridin-6-yl}thio)benzamide], the 50% inhibitory concentration (IC50) on KDR (VEGFR2) was 10 to 100 nM; at FLT1 (VEGFR1) it was 10 to 100 nM; on FLT4 (VEGFR3) it was 10 to 100 nM; at EGFR, 6000 to 60000 nM. Besides, the fraction unbound at 2 h, 2 μM in the data set on melanin is 0.01 to 0.05.

As for `CNC(=O)c1ccccc1Sc1ccc2c(/C=C/c3cncc(OCCN4CCCC4)c3)n[nH]c2c1` [Compound I-22, N-methyl-2-({3-[(E)-2-{5-[2-(pyrrolidin-1-yl)ethoxy]pyridin-3-yl}vinyl]-1H-indazol-6-yl}thio)benzamide], the IC50 at KDR (VEGFR2) is 10 to 100 nM; on FLT1 (VEGFR1) it was 10 to 100 nM; at FLT4 (VEGFR3), 10 to 100 nM; at EGFR, over 60000 nM. Moreover, the fraction unbound at 2 h, 2 μM with melanin was 0.01 to 0.05.

In the case of `CNC(=O)c1ccccc1Sc1ccc2c(C#Cc3cc(OCCN4CCCC4)ccn3)n[nH]c2c1` [Compound I-23, N-methyl-2-{[3-(2-{4-[2-(pyrrolidin-1-yl)ethoxy]pyridin-2-yl}ethynyl)-1H-indazol-6-yl]thio}benzamide], the IC50 on KDR (VEGFR2) was 10 to 100 nM; on FLT1 (VEGFR1) it was 10 to 100 nM; at FLT4 (VEGFR3), over 100 nM; on EGFR, 6000 to 60000 nM. The fraction unbound at 2 h, 2 μM in the data set with melanin was in the range of 0.01 to 0.05.

`CNC(=O)c1ccccc1Sc1ccc2c(/C=C/c3ccnn3CCN3CCCC3)n[nH]c2c1` [Compound I-25, N-methyl-2-({3-[(E)-2-{1-[2-(pyrrolidin-1-yl)ethyl]-1H-pyrazole-5-yl}vinyl]-1H-indazol-6-yl}thio)benzamide]: the half-inhibitory concentration (IC50) was over 100 nM at KDR (VEGFR2), 10 to 100 nM on FLT1 (VEGFR1), 10 to 100 nM at FLT4 (VEGFR3) and 6000 to 60000 nM on EGFR. The fraction unbound at 2 h, 2 μM with melanin is over 0.05.

On to `CNC(=O)c1ccccc1Sc1ccc2c(NC(=O)NCCN3CCN(C)CC3)n[nH]c2c1` [Compound I-31], for which the half-inhibitory concentration (IC50) was over 100 nM on KDR (VEGFR2), over 100 nM on FLT1 (VEGFR1), over 100 nM at FLT4 (VEGFR3) and over 60000 nM at EGFR. Further, in the data set with melanin, the fraction unbound at 2 h, 2 μM lay in the range of 0.01 to 0.05.

For `CNC(=O)c1ccccc1Sc1ccc2c(/C=C/c3cnn(CCCN4CCCC4)c3)n[nH]c2c1` [Compound I-32, N-methyl-2-({3-[(E)-2-{1-[3-(pyrrolidin-1-yl)propyl]-1H-pyrazole-4-yl}vinyl]-1H-indazol-6-yl}thio)benzamide], the half-inhibitory concentration (IC50) was in the range of 1 to 10 nM on KDR (VEGFR2), 1 to 10 nM on FLT1 (VEGFR1), 1 to 10 nM at FLT4 (VEGFR3) and 6000 to 60000 nM on EGFR. The fraction unbound at 2 h, 2 μM in the data set on melanin was in the range of 0.01 to 0.05.
